Assay results: patent US12377042B2, “Botanical and bacterial extracts displaying retinol-like activity” (KENVUE BRANDS LLC, priority 2018, dated 2025)
pEC50: −log10 of the molar value.

What was measured:
[1] = target: T1, Retinoic acid receptor gamma (RARg) (Homo sapiens, UniProt P13631); assay: RARg Transactivation Assay (GeneBLAzer RAR gamma-UAS-bla HEK 293T); format: cell-based; conditions: solution in DMSO at different concentrations
T1 construct: the UAS-driven beta-lactamase is the reporter
T1 sequence (P13631 185-419 limits assumed): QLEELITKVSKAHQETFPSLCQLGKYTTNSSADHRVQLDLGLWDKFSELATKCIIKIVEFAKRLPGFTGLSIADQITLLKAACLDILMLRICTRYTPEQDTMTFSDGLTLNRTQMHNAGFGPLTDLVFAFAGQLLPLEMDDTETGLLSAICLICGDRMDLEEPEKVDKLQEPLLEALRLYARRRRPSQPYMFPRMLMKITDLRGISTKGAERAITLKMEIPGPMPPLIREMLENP
Description: Retinoic acid receptor gamma (RARg) agonism was assessed using the Invitrogen GeneBLAzer RAR gamma-UAS-bla HEK 293T cell-based assay, in which activation of RARg results in transcription of beta lactamase. When a FRET probe is added to cells, FRET is observed. However, upon receptor activation and subsequent beta lactamase expression, the probe is cleaved and FRET is no longer observed.
Cells in culture are washed with PBS, trypsinized and resuspended in growth media, counted using ViCell cell counter; the appropriate amount of cells is then spun down and resuspended in assay buffer (at 0.5E6 cells/ml). 15 k cells in 30 ul assay buffer is plated per well in Greiner black walled, clear flat bottom plates using Combi dispenser. The last two columns are filled with assay buffer. […]
After 18-20 h of incubation, 8 ul FRET dye (Invitrogen K1096) is added using Tempest dispenser, after which plates are spun down at 800 rpm for 2 min without brakes and incubated in the dark at room temperature for 2 h. The bottom of the plates is cleaned using anti-static cleaning wipe before measuring fluorescence using BMG Pherastar plate reader (using FRET module, 10 reads, gain for both channels=1000, Ex 409, Em1 460, Em2 530). […]

[2] = system: human epidermal skin equivalents; assay: Oleic acid induced hyperkeratinization in human epidermal skin equivalents; format: cell-based; conditions: for % Hyperkeratinization (normalized by 10% OA), Average / Stratum Corneum Thickness (% of Total Epidermis), Average: topical
Description: Human epidermal skin equivalents from MatTek Company (Ashland, MA, USA) were used. The skin equivalents were topically treated with 10% oleic acid (OA) either without or with the addition of 1 μM 3-(4-farnesyloxyphenyl)-propionic acid in a proprietary MatTek medium (pheno-red free, hydrocortisone free) for 48 hours. The epidermal skin equivalents were collected at the end of treatment and fixed in 10% neutral buffered formalin solution (Thermo Fisher Scientific, Hudson, NH, USA), dehydrated and embedded in paraffin. Tissue sections (5 μm thick) were cut and were stained with hematoxylin-eosin. Three pictures per section were taken for each skin equivalent. The thickness of the stratum cornea or epidermis was measured using ImagePro Plus (Media Cybernetics Inc., Rockville, MD, USA). The stratum corneum thickness was expressed as % of total epidermis (=thickness of stratum corneum divided by the sum of thicknesses of stratum corneum and epidermis). The % hyperkeratinizatin was normalized by the thickness of 10% OA-treated tissues. Statistical analysis was performed using two-tailed two-sample equal variance Student t test (Microsoft Office Excel 2007; Microsoft, Redmond, WA, USA).

[3] = 1 uM together with 10% oleic acid, 48 hours

SMILES	pEC50 [1]	% Hyperkeratinization (normalized by 10% OA), Average [2, 3]	Stratum Corneum Thickness (% of Total Epidermis), Average [2, 3]	oleic-acid (OA) induced hyperkeratinization (in words) ([2]; 1 uM with 10% oleic acid, 48 hours, p<0.05)	Stratum Corneum Thickness (% of Total Epidermis), Average ([2]; 10% oleic acid alone, 48 hours)	% Hyperkeratinization (normalized by 10% OA), Average ([2]; 10% oleic acid alone, 48 hours (reference))
CC(C)=CCCC(C)=CCCC(C)=CCOc1ccc(CCC(=O)O)cc1 [3-(4-farnesyloxyphenyl)-propionic acid]	6.23	76%	38%	significantly (p<0.05) reduced		
CCCCCCCC/C=C\CCCCCCCC(=O)O [oleic acid, reference compound]					50%	100%
